# From publication PMC6882465, “Towards discovery of new leishmanicidal scaffolds able to inhibit Leishmania GSK-3” (Journal of Enzyme Inhibition and Medicinal Chemistry, 2019)
# Biological target: LdGSK-3 (Leishmania donovani, UniProt A6N857)
# Test: Inhibition of LdGSK-3 with Kinase Glo
# Type: biochemical
# Conditions: Table S2; 10 µM
# Procedure: Assessment of inhibition of LdGSK-3 with Kinase Glo^TM
# The reaction was allowed to proceed for 30 min at 30 °C, then it was incubated at room temperature for another 10 min after addition of Kinase Glo reagents (Promega, Ref. V6712). ATP consumption by LdGSK-3 was measured indirectly through end-point luminescence measurement of each well in a Varioskan Flash microplate reader (Thermo).
# Sequence of LdGSK-3 (A6N857 entry or part of it): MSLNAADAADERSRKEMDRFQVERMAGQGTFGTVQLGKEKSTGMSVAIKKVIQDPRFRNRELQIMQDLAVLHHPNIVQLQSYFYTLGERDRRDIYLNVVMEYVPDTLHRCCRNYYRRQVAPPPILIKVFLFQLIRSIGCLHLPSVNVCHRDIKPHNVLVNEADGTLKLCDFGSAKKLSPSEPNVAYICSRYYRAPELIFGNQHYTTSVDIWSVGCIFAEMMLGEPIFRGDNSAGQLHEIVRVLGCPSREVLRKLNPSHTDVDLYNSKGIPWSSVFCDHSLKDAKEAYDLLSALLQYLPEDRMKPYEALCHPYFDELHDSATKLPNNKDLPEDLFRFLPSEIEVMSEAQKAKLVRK
row,SMILES,% inhibition @ 10µM (initial screening on LdGSK3) [%]
1,CCCc1cc(N)nc(-c2cc(CCC)cc(N)n2)c1 [Compound 33],-0.35±3.85
2,CC(C)(C)c1csc(NC(=O)c2ccc([N+](=O)[O-])s2)n1 [Compound 181],5.90±2.90
3,COc1ccc(Cc2nc(-c3ncc4cccnc4c3O)n[nH]2)cc1OC [Compound 77],4.60±0.95
4,COc1cc2c(cc1OC)[C@H]1[C@@H](C)c3ccc(OC)c(OC)c3CN1CC2 [Compound 130],12.85±2.80
5,COc1cc(C2SCC(=O)Nc3c2c(C)nn3-c2nc3ccccc3s2)cc(OC)c1O (centres unmarked) [Compound 179],29.35±2.80
6,CC(C)Nc1nc(Cl)nc2ccccc12 [Compound 106],-4.60±0.90
7,Br.Nc1nccc(-c2csc(Nc3ccc(Cl)cc3)n2)n1 [Compound 101],16.40±2.40
8,CCCn1c(NC(=O)CCn2cc(Br)cn2)nc2ccccc21 [Compound 70],3.80±1.25
9,Cc1nc2c(-c3nc(-c4ccc(N)cc4)n[nH]3)cccn2c1C [Compound 111],7.35±4.65
10,COc1cccc(CN(C)Cc2nc(N)c3c(C)c(C)sc3n2)c1 [Compound 81],6.35±3.00
11,CC(c1cc(Cl)cc(Cl)c1)N(C)c1ncc2c(N)nc(N)nc2n1 (centres unmarked) [Compound 75],10.05±1.10
12,Cc1nnc(-c2nc(NCc3ccc(Cl)cc3)c3cccnc3c2O)[nH]1 [Compound 31],8.20±1.70
13,CC(C)c1nn(-c2nc(N)nc(-c3ccccn3)n2)c(N)c1C1CCCCC1 [Compound 94],10.45±0.55
14,Cc1cc(C)n(-c2nc(NC(C)C)nc(NC(C)(C)C)n2)n1 [Compound 158],7.85±3.95
15,COc1cccc(Nc2cc(C)nc(-c3ccccn3)n2)c1 [Compound 32],8.80±4.10
16,CC(c1ccccn1)N(C)Cc1nc2ccccc2n1C(C)C (centres unmarked) [Compound 85],3.45±4.90
17,CCCCn1nnnc1CSc1nc(C)cc(C)c1C#N [Compound 161],3.00±3.05
18,CCc1nn(-c2ncc(F)c(NC(C)C)n2)c(N)c1C1CCCCC1 [Compound 41],7.05±1.35

row,SMILES,% inhibition @ 10µM (initial screening on LdGSK3) [%]
1,Oc1c(-c2n[nH]c(Cc3ccc(Cl)cc3)n2)ncc2cccnc12 [Compound 52],5.05±2.35
2,CC(c1ccc2c(c1)CCCC2)N(C)c1ncc2c(N)nc(N)nc2n1 (centres unmarked) [Compound 62],12.10±2.40
3,CC(C)(C)Nc1nc(Nc2ccc3c(c2)CS(=O)(=O)C3)nc2[nH]ccc12 [Compound 103],25.85±1.25
4,COc1ccc(Cl)cc1CC(=O)Nc1n[nH]c(-c2ccccn2)n1 [Compound 122],3.95±2.45
5,COc1cccc(-c2c(C)nn(-c3nc(N)nc(-c4ccccn4)n3)c2N)c1 [Compound 61],-2.20±1.15
6,CC(C)(C)c1cc(NC2CC2)nc(-c2ccccn2)n1 [Compound 50],4.70±2.30
7,Cc1nc2c(-c3nc(-c4ccccc4N)n[nH]3)cccn2c1C [Compound 113],1.40±0.50
8,CCOc1cc(NCCCN2CCN(C)CC2)c2ncccc2c1.Cl.Cl.Cl [Compound 112],7.50±0.65
9,Cc1ccc2c(c1)SC(C(=O)Nc1n[nH]c(-c3ccccn3)n1)C2 (centres unmarked) [Compound 115],3.20±0.80
10,O=C(CN1CCC2(O)CCCCC2C1c1ccc2c(c1)OCO2)Nc1ccc(Cl)cc1Cl (centres unmarked) [Compound 143],2.25±0.35
11,O=C(c1ccc(O)c(Cl)c1)N1CCN(c2cnccn2)CC1 [Compound 96],1.65±2.40
12,CCN(CC)c1nc(Nc2ccncc2)nc2ccccc12 [Compound 36],7.10±1.90
13,CCOc1ccc(Nc2ccc(S(=O)(=O)N3CCN(C)CC3)cc2[N+](=O)[O-])cc1OCC [Compound 166],18.60±2.15
14,CCN(Cc1cccs1)C(=O)CSc1nnc(-c2ccc3c(c2)OCO3)o1 [Compound 197],10.05±1.90
15,CCCc1cc(C(=O)Nc2ncc(-c3cccc(Br)c3)n2C)n[nH]1 [Compound 159],8.80±2.70
16,Cc1cc(NC(=O)c2ccc([N+](=O)[O-])s2)ccc1Br [Compound 186],3.65±2.60
17,CN(CCOc1ccc(Cl)cc1)Cc1nc(N)nc(N(C)C)n1 [Compound 44],-2.45±1.00
18,COc1ccc(Nc2nc(-c3ccccn3)cs2)c(OC)c1 [Compound 157],4.50±4.45

# Continued, values first:
row,% inhibition @ 10µM (initial screening on LdGSK3) [%],SMILES
1,53.23±3.29,O=C(CSc1nnc(-c2ccc3c(c2)OCO3)o1)N(Cc1ccco1)CC(F)(F)F [Compound 184]
2,6.80±1.95,O=C(CN(Cc1ccccn1)Cc1ccccn1)NCc1csc(-c2cccs2)n1.O=C(O)C(F)(F)F [Compound 68]
3,8.70±1.75,CC1CN(Cc2ccc(C#N)cc2)CCN1c1ccc(NC(=O)c2ccccc2F)cc1.O=C(O)C(F)(F)F.O=C(O)C(F)(F)F (centres unmarked) [Compound 199]
4,6.50±2.15,CC1CCCN(S(=O)(=O)c2ccc(C(=O)Nc3nc(-c4ccccn4)cs3)cc2)C1 (centres unmarked) [Compound 202]
5,11.90±1.75,COc1ccc(C2CC(c3ccc(NS(C)(=O)=O)cc3)=NN2C(=O)c2cccs2)cc1OC (centres unmarked) [Compound 156]
6,3.25±2.75,Cc1ccc(Nc2nc(-c3ccccn3)cc(N3CCCC(O)C3)n2)cc1 (centres unmarked) [Compound 48]
7,8.90±2.10,Cc1nc(C(=O)Nc2ccc3c(c2)OCO3)nn1-c1ccc(Cl)cc1 [Compound 149]
8,17.65±3.55,COc1ccc([N+](=O)[O-])cc1NC(=O)c1cc(Cl)ccc1O [Compound 210]
9,4.75±1.20,Nc1nc(-c2ccccn2)nc(-n2nc(-c3cccc(C(F)(F)F)c3)cc2N)n1.O=C(O)C(F)(F)F [Compound 26]
10,1.15±1.75,CN(Cc1nc2ccc(C(=O)NCC3CCCCC3)cc2[nH]1)C1CCCc2cccnc21.O=C(O)C(F)(F)F (centres unmarked) [Compound 28]
11,5.60±2.35,Cc1ccccc1CNc1cc(C2CC2)nc(-c2nccn2C)n1.O=C(O)C(F)(F)F [Compound 49]
12,16.65±1.70,COc1ccc(S(=O)(=O)Nc2ccc(C(=O)Nc3nc(-c4ccccn4)cs3)cc2)cc1 [Compound 175]
13,10.20±3.25,O=C(CN1CCN(c2ccccn2)CC1)Nc1cc(S(=O)(=O)N2CCCCCC2)ccc1Cl [Compound 208]
14,4.70±0.85,CCS(=O)(=O)c1cccc(C(=O)Nc2nc(-c3ccccn3)cs2)c1 [Compound 165]
15,5.70±0.50,O=C(Nc1n[nH]c(-c2ccccn2)n1)C1CC1c1ccccc1 (centres unmarked) [Compound 76]
16,-5.50±2.15,COc1cccc(C(=O)[C@H]2C[C@@H]2CN(Cc2ccccn2)Cc2ccccn2)c1 [Compound 153]
17,-13.55±3.90,CNc1nc(C)nc(N2CCc3cc(C(=O)NCc4ccc(-c5ccn[nH]5)cc4Cl)ccc32)n1.O=C(O)C(F)(F)F [Compound 25]

row,% inhibition @ 10µM (initial screening on LdGSK3) [%],SMILES
1,1.15±1.40,COCCn1c(-c2ccc3c(c2)OCO3)cnc1NCc1ccccc1OC.O=C(O)C(=O)O [Compound 164]
2,1.70±0.75,O=C(Nc1ccc(C(F)(F)F)cc1)Nc1cccc([N+](=O)[O-])c1 [Compound 185]
3,1.40±0.95,O=C(Nc1ccccc1)Nc1nc(-c2ccccn2)cs1 [Compound 64]
4,-2.95±1.70,O=C(CN1CCN(S(=O)(=O)c2cccc([N+](=O)[O-])c2)CC1)Nc1ccc(Oc2ccccc2)cc1 [Compound 152]
5,64.27±2.13,Cc1ccc(-c2csc(NC(=O)C=Cc3ccc(S(=O)(=O)N4CCOCC4)cc3)n2)o1 [Compound 69]
6,0.20±2.80,CC(C)c1sc(Cl)nc1C(=O)NCCc1nc(C(=O)Nc2ccc3c(c2)OCO3)cs1 [Compound 60]
7,5.30±2.55,COc1ccc(Nc2nc(-c3ccccn3)cc(N3CCCC(O)C3)n2)cc1 (centres unmarked) [Compound 42]
8,12.65±6.10,CN(Cc1nc2cccc(C(=O)N3CCN(Cc4ccccc4)CC3)c2[nH]1)C1CCCc2cccnc21.O=C(O)C(F)(F)F (centres unmarked) [Compound 91]
9,9.00±3.05,COCc1cc(Nc2cccc(Cl)c2)nc(-c2ccccn2)n1 [Compound 39]
10,7.50±1.00,O=C(Nc1nc2ccccc2[nH]1)c1c(O)c2cccc3c2n(c1=O)CC3 [Compound 155]
11,0.10±1.10,O=C(Nc1nc(-c2ccccn2)cs1)C1CCc2ccccc2C1 (centres unmarked) [Compound 54]
12,5.20±2.65,COc1ccccc1-n1c(SCC(=O)Nc2ccc3c(c2)OCO3)nc2c(c1=O)SCC2 [Compound 172]
13,-4.05±3.20,COc1ccc(C(=O)[C@H]2C[C@@H]2CN(Cc2ccccn2)Cc2ccccn2)cc1 [Compound 107]
14,5.25±1.70,CC(CCc1ccccc1)NC(=O)CN(Cc1ccccn1)Cc1ccccn1.O=C(O)C(F)(F)F (centres unmarked) [Compound 134]
15,-5.05±0.45,CNc1nc(C)nc(N2CCc3cc(C(=O)NCc4ccc(-c5nccn5C)cc4Cl)ccc32)n1.O=C(O)C(F)(F)F [Compound 83]
16,3.80±1.90,Cc1nn(-c2nc(N)nc(-c3ccccn3)n2)c(N)c1-c1ccccc1.O=C(O)C(F)(F)F.O=C(O)C(F)(F)F [Compound 29]

# Same assay, conditions: assayed at 10 µM
row,percentage of inhibition of LdGSK-3,SMILES
1,higher than 50%,O=C(CSc1nnc(-c2ccc3c(c2)OCO3)o1)N(Cc1ccco1)CC(F)(F)F [Compound 184]
2,higher than 50%,Cc1ccc(-c2csc(NC(=O)C=Cc3ccc(S(=O)(=O)N4CCOCC4)cc3)n2)o1 [Compound 69]
